Laboratory results published in ChEMBL document CHEMBL1156426, “Structure-based inhibitor design for an enzyme that binds different steroids: a potent inhibitor for human type 5 17beta-hydroxysteroid dehydrogenase” (J Biol Chem, 2007).

What was measured:
[1] = molecular target: T1, Aldo-keto reductase family 1 member C3 (Homo sapiens, UniProt P42330); test: Inhibition of human 17beta HSD5 mediated conversion of testosterone to delta-4-androstene-3,17-dione
T1 sequence (P42330 whole entry): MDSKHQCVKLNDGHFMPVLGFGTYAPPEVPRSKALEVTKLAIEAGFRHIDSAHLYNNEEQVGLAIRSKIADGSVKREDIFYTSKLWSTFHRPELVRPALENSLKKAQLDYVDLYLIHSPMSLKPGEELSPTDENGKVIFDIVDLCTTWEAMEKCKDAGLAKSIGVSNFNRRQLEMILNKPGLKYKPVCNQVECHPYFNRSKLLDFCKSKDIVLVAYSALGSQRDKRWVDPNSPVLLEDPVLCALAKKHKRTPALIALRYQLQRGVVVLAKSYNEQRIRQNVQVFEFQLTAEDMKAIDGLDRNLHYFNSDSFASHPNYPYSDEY

[2] = molecular target: T1, Aldo-keto reductase family 1 member C3; test: Inhibition of human 17beta HSD5 in HEK cells; type: cell-based, HEK293

Compound | Ki [1] | IC50 [2]
CC1(C)CC[C@@]2(CC[C@H]3[C@@H]4CCc5cc(C(N)=O)ccc5[C@H]4CC[C@@]32C)OC1=O | 6.9 nM | 3.2 nM
COCCOc1cc2c(cc1C#N)[C@H]1CC[C@@]3(C)[C@@H](CC[C@@]34CCC(C)(C)C(=O)O4)[C@@H]1CC2 [EM1396] | – | 13 nM
COCCOc1cc2c(cc1OC(N)=O)[C@H]1CC[C@@]3(C)[C@@H](CC[C@@]34CCC(C)(C)C(=O)O4)[C@@H]1CC2 | – | 9.5 nM
